Values of other authors in patent US5006510A, “Method for relieving chronic pain with a somatostatin analog composition” (priority 1989, dated 1991).
Read-outs that look alike come from different tables or passages of the source.

Key:
[1] = applied topically with N-decylmethylsulfoxide; human skin
[2] = applied topically with N-decylmethylsulfoxide; mouse skin

In the case of C[C@@H](O)[C@@H]1NC(=O)[C@H](CCCCN)NC(=O)[C@@H](Cc2c[nH]c3ccccc23)NC(=O)[C@H](Cc2ccccc2)NC(=O)[C@@H](NC(=O)[C@H](N)Cc2ccccc2)CSSC[C@@H](C(=O)N[C@H](CO)[C@@H](C)O)NC1=O [octreotide, octreotide acetate], the skin permeation [1] is listed as “permeates both human and mouse skin” and the skin permeation [2] is listed as “permeates both human and mouse skin”.
